Active and inactive are the calls of the source.
Legend:
[1] = HEp-2 cell cytotoxicity, dose response, cytotoxicity control for RSV inhibitor project, HTS (AID 2410); assay type: functional; conditions: human respiratory syncytial virus
[2] = cells; assay type: functional, cell-based
[3] = cells; assay type: functional, cell-based; remark: listed apart in the source
[4] = A549 cell cytotoxicity, dose response, cytotoxicity control, plate reader, cherry-pick, antagonist series (AID 743412); assay type: functional, cell-based
[5] = HepG2 cell cytotoxicity, dose response, cytotoxicity control, plate reader, cherry-pick, antagonist series (AID 743416); assay type: functional, cell-based
[6] = MC4R antagonists, dose response, counter-screen for LGR2 antagonist project, cell-based, plate reader, cherry pick (AID 743444); assay type: functional;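 note: transfected HEK 293 cells stimulated with alpha-MSH peptide; potency of inhibitors of the alpha-MSH evoked signal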
[7] = biological target: T1, Fatty acid synthase (Homo sapiens, UniProt P49327); test: FAS thioesterase domain inhibitors, dose response, biochemical, endpoint fluorescence intensity, uHTS hits (AID 624327); assay type: functional;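 note: fluorescence from hydrolysis of an O-methyl fluorescein acyl ester substrate by the enzyme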
[8] = biological target: T1, Fatty acid synthase; test: FAS thioesterase domain inhibitors, dose response, biochemical, kinetic fluorescence intensity (AID 624326); assay type: functional;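 note: rate of fluorescence rise from hydrolysis of a fluorogenic O-methyl fluorescein ester substrate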
[9] = biological target: FAD-linked sulfhydryl oxidase ALR (Homo sapiens, UniProt P55789); test: inhibitors of human ALR sulfhydryl oxidase, dose response, biochemical, H2O2 detection, luminescence, cherry-pick (AID 493248)
[10] = growth suppression of PTEN-null colon cells, dose response, cell-based, HCT116 PTEN knockout (AID 1047); assay type: functional;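 note: HCT116 colon tumor cells with PTEN knocked out; cells exposed to compound for 60 hours before readout; potency for loss of cell viability measured by luminescence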
[11] = growth suppression of beta-catenin-knockout colon cells, dose response, cell-based, HCT116, human colon tumor (AID 1045); assay type: functional;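 note: HCT116 colon tumor cells with beta catenin knocked out; cells exposed to compound for 60 hours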
[12] = biological target: T2, Rac GTPase-activating protein 1 (Homo sapiens, UniProt Q9H0H5); test: MgcRacGAP GTPase-activating activity inhibitors, confirmation, biochemical, ADP Hunter fluorescence, primary and confirmatory (AID 624330); assay type: functional
T2 sequence (Q9H0H5 whole entry): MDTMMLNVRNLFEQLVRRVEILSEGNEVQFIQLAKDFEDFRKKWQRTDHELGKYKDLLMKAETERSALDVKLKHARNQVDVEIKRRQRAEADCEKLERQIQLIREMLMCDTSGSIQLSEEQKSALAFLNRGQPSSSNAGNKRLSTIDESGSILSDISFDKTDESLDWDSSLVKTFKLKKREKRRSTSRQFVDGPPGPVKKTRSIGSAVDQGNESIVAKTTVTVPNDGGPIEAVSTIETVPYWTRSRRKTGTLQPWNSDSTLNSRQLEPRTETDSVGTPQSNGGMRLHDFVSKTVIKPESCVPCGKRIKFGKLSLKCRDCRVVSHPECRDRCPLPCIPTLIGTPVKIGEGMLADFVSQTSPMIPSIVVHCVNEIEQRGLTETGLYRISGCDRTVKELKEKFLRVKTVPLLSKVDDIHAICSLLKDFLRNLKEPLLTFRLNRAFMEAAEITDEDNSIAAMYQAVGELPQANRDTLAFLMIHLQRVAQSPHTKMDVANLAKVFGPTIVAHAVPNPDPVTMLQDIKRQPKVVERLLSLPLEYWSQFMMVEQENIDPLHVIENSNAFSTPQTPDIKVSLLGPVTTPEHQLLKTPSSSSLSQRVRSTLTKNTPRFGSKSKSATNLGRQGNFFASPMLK

[13] = tested on: Vero; test: cells; assay type: functional; conditions: Chlorocebus sabaeus

FAD-linked sulfhydryl oxidase ALR, sequence (P55789 whole entry): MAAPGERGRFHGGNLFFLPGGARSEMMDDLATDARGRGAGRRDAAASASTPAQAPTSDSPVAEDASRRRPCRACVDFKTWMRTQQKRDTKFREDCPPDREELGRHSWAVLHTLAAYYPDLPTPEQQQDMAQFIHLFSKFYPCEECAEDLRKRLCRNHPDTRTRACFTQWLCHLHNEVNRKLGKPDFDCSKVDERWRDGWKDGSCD
T1 sequence (P49327 whole entry, the tested form may be a part): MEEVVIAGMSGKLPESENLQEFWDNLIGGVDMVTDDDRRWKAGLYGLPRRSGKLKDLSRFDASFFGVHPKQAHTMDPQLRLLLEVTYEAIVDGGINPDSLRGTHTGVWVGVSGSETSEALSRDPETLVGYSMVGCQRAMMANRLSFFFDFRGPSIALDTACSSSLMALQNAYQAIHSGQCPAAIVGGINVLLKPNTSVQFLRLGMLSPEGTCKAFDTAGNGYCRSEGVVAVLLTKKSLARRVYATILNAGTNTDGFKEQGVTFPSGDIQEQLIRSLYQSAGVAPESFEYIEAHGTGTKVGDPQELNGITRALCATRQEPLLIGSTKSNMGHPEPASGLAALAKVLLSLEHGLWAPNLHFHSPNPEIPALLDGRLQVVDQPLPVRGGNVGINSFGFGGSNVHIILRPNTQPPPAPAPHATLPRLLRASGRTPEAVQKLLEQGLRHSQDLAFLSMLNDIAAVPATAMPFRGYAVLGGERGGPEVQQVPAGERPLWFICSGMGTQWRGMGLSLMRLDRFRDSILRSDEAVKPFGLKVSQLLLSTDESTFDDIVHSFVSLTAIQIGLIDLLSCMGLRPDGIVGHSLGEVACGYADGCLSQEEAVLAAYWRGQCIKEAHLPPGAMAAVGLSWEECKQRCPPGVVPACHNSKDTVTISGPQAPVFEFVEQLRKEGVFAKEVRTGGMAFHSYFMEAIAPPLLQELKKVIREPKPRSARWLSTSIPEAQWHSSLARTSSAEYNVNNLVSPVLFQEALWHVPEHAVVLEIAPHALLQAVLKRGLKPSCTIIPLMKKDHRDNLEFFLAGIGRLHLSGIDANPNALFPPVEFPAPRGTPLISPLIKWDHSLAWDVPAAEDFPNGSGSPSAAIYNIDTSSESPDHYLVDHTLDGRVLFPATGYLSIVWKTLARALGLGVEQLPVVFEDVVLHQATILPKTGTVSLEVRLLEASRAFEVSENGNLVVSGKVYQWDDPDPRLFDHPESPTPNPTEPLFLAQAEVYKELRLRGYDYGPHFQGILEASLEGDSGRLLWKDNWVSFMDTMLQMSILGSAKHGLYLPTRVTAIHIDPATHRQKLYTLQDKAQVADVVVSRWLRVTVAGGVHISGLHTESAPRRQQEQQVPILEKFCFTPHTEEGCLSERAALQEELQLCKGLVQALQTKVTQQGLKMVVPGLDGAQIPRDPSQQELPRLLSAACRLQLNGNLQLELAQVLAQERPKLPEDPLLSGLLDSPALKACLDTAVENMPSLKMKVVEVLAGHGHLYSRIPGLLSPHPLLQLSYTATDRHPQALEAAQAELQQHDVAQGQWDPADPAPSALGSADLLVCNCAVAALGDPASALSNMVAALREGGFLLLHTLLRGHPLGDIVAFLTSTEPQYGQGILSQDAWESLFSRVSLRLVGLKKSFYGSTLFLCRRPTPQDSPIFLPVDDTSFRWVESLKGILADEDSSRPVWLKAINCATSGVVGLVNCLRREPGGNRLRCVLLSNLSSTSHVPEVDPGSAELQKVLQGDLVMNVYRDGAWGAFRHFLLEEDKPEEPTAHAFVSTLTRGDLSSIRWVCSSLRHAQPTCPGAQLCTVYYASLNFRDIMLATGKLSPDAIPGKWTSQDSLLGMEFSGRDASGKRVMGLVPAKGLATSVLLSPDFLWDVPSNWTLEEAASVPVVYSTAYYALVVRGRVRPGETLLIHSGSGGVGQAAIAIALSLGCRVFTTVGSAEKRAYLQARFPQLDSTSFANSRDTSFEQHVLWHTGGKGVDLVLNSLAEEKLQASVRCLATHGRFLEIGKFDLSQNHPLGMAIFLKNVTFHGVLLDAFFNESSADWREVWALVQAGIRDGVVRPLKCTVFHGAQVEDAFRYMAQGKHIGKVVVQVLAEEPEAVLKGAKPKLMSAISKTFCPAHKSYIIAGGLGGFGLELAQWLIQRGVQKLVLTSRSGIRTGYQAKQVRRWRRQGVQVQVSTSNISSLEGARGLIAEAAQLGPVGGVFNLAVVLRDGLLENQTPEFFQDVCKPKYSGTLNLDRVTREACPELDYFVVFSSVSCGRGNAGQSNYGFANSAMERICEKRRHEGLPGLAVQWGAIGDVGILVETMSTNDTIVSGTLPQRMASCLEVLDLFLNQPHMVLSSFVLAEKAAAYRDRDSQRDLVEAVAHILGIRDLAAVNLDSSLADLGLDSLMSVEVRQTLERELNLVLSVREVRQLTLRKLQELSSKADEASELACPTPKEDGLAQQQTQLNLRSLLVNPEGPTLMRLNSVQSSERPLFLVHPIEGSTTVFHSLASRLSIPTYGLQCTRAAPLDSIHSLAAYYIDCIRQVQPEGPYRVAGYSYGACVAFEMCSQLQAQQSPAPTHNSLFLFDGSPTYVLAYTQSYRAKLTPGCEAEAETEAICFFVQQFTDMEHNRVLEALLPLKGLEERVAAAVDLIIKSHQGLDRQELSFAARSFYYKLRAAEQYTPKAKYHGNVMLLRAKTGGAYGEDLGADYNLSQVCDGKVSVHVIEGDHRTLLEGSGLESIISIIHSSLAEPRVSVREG

For `CCOC(=O)c1sc(Nc2cccc(Cl)c2)nc1C`, the CC50 [1] was > 50 µM (active), the EC50 [2] was > 350 µM (not active) and the EC50 [3] was 19.5 µM (active).

With `OC[C@H]1[C@@H](c2ccc(-c3ccc(F)cc3)cc2)[C@@H]2CN(Cc3ccccn3)CCCCN12` the AC50 [4] was 22 µM (active), the AC50 [5] was 19.1 µM (active) and the AC50 [6] was 37.5 µM (active).

For `Cc1cccc(OCCn2cccc2/C=C2/C(=O)NC(=O)N(Cc3ccco3)C2=O)c1`, the EC50 [2] was > 350 µM (not active) and the EC50 [3] was > 350 µM (not active).

With `O=[N+]([O-])c1cc(-c2csc(NCCc3nc4cc(Cl)c(Cl)cc4n3CCCO)n2)ccc1Cl` the IC50 [7] was 2.49 µM (active) and the IC50 [8] was 2.55 µM (active).

With `CC(Cc1ccccc1)NC(=O)c1cc([N+](=O)[O-])ccc1Cl` (stereo unspecified) the IC50 [7] was 5.69 µM (active) and the IC50 [8] was 5.85 µM (active).

In the case of `COC(=O)C1CSC(C(=O)OC)N1C(=O)CN1CCN(c2ccccc2)CC1` (stereo unspecified), the AC50 [9] is reported as 2.84 µM (active).

For `Cc1sc2nc(CN3CCCC3)nc(Cl)c2c1C`, the EC50 [10] was 16.2 µM (active) and the EC50 [11] was 11.2 µM (active).

For `O=C(CSc1nnc(SCc2cccc3ccccc23)s1)N=Nc1c(O)[nH]c2ccccc12`, the EC50 [10] was 13.6 µM (active) and the EC50 [11] was 10.8 µM (active).

With `S=C(NCCc1ccccc1)N1Cc2cc(Br)ccc2-n2nncc2C1` the IC50 [7] was 12.1 µM (active) and the IC50 [8] was 7.04 µM (active).

With `O=[N+]([O-])c1cccc(CN2CCN(c3cccc4[nH]ccc34)CC2)c1` the AC50 [9] was 2.06 µM (active) and the IC50 [12] was 45.4 µM (active).

For `COc1ccc(-c2csc3nc(-c4ccccc4F)oc(=O)c23)cc1`, the IC50 [7] was 2.83 µM (active) and the IC50 [8] was 1.16 µM (active).

For `Cc1cccc(Oc2ccc(NC(=O)c3ccccc3C(=O)O)cc2)c1`, the AC50 [9] was 5.07 µM (active).

In the case of `O=C(CCc1ccccc1)N1CCN(c2ccc(F)cc2)CC1`, the AC50 [9] is reported as 13.8 µM (active).

With `COc1ccc(NC(=O)Nc2ccc(Br)cn2)cc1` the EC50 [2] was > 350 µM (not active) and the EC50 [3] was > 350 µM (not active).

With `CC(C)(C)N1C(=O)[C@H]2[C@@H](c3ccc(Br)cc3)N3C(=O)N(c4ccc(Br)cc4)C(=O)[C@@]3(Cc3ccccc3)[C@H]2C1=O` the IC50 [7] was 10.3 µM (active) and the IC50 [8] was 10.5 µM (active).

For `COc1cccc(/C=N/NC(=O)c2ccc([N+](=O)[O-])cc2Cl)c1O`, the EC50 [2] was 19.1 µM (active) and the EC50 [3] was 172 µM (active).

For `O=C(Nc1nc2ccc([N+](=O)[O-])cc2s1)c1c(F)cccc1F`, the EC50 [2] was > 350 µM (not active) and the EC50 [3] was 31.2 µM (active).

In the case of `C[C@H](CO)N1C[C@H](C)[C@@H](CN(C)C(=O)Nc2ccccc2)Oc2c(NC(=O)Nc3ccc(C(F)(F)F)cc3)cccc2C1=O`, the IC50 [7] is reported as 2.24 µM (active) and the IC50 [8] is reported as 2.08 µM (active).

For `CCOC(CNCc1cc(C)c2[nH]c3ccccc3c2c1C)OCC`, the CC50 [13] was 22.6 µM (active).

From ChEMBL document CHEMBL1201862, “PubChem BioAssay data set” (2004)
